{"source": "patent US12391723B2", "about": "“Steroids and methods of manufacture” (Trustees of Dartmouth College, priority 2017, dated 2025)", "key": {"AsPC-1 [1]": {"system": "AsPC-1", "assay": "In vitro growth inhibition (Hoechst 33258 DNA fluorescence, 6 days)", "format": "cell-based", "conditions": "Homo sapiens, ASPC1, 144 h, concentration that inhibited growth by 50%, 2-fold dilutions from 40 μM", "experimental": "(§1) Fifteen (15) exemplary compounds were investigated for growth inhibition in two cancer cell lines (one for breast and one for pancreatic cancer: MDA-MB-231 and AsPC-1, respectively).\n(§2) Procedure: Inhibition of cell growth was accessed by plating 1000 cells per well of a 96-well plate. The following day, compounds were added as 2-fold dilutions from 40 μM (8 wells/concentration). After 6 days, cells were washed, lysed and stained with Hoechst 33258. Fluorescence was read on a microplate spectrofluorometer. Results are expressed as the concentration that inhibited growth by 50% (GI50). See Rao, J., Otto, W. R. Fluorometric DNA assay for cell growth estimation. Anal Biochem. 1992; 207:186-192."}, "MDA-MB-231 [2]": {"system": "MDA-MB-231", "assay": "In vitro growth inhibition (Hoechst 33258 DNA fluorescence, 6 days)", "format": "cell-based", "conditions": "Homo sapiens, MDA-MB-231, 144 h, concentration that inhibited growth by 50%, 2-fold dilutions from 40 μM", "experimental": "as §1, §2"}, "[3]": {"system": "three human cancer cell lines", "assay": "Growth inhibition by compound 39, total DNA content after 7 days growth", "format": "cell-based", "conditions": "168 h, range across three human cancer cell lines, read-out: 50% inhibitory concentrations", "experimental": "(§3) The following day, ent-steroidal compound 39 was added in 2-fold dilutions (8 wells/concentration). After 7 days growth, cells were lysed and analyzed for total DNA content as described in Montano et al. (See, Montano, R., et al., Mol. Cancer Therap., 11:427-438 [2012])."}, "AsPC-1 [4]": {"system": "AsPC-1", "assay": "Growth inhibition by Compound 39 (DNA fluorescence, FIG. 3D)", "format": "cell-based", "conditions": "Homo sapiens, ASPC1, read-out: calculated GI50 against AsPC-1", "experimental": "as §3\n(§4) Compound 39 was also investigated for growth inhibition in three cancer cell lines: MDA-MB-231, AsPC-1, and U2OS (human osteosarcoma)."}, "MDA-MB-231 [5]": {"system": "MDA-MB-231", "assay": "Growth inhibition by Compound 39 (DNA fluorescence, FIG. 3D)", "format": "cell-based", "conditions": "Homo sapiens, read-out: calculated GI50 against MDA-MB-231", "experimental": "as §3, §4"}, "[6]": {"system": "U2OS (human osteosarcoma)", "assay": "Growth inhibition by Compound 39 (DNA fluorescence, FIG. 3D)", "format": "cell-based", "conditions": "read-out: calculated GI50 against U2OS", "experimental": "as §3, §4"}, "ER-β": {"target": "ER-β (Homo sapiens, UniProt Q92731)", "sequence (Q92731 whole entry, species assumed)": "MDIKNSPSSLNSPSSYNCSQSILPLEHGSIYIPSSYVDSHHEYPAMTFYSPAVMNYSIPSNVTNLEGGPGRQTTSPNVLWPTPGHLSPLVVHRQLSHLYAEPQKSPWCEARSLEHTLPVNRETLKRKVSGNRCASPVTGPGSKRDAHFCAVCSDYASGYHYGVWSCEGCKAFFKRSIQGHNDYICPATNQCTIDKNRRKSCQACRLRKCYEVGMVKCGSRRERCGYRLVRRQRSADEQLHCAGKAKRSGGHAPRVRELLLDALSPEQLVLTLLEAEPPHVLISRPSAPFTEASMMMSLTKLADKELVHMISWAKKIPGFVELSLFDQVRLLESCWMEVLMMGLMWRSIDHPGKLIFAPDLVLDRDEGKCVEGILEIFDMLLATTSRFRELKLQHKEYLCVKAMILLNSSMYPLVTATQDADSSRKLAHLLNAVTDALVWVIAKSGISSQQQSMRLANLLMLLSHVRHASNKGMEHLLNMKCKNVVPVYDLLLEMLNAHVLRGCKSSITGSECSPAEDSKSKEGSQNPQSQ", "assay": "ER-β agonist activity", "format": "cell-based"}, "ER-α": {"target": "T1, ER-α (Homo sapiens, UniProt P03372)", "T1 sequence (P03372 1-595)": "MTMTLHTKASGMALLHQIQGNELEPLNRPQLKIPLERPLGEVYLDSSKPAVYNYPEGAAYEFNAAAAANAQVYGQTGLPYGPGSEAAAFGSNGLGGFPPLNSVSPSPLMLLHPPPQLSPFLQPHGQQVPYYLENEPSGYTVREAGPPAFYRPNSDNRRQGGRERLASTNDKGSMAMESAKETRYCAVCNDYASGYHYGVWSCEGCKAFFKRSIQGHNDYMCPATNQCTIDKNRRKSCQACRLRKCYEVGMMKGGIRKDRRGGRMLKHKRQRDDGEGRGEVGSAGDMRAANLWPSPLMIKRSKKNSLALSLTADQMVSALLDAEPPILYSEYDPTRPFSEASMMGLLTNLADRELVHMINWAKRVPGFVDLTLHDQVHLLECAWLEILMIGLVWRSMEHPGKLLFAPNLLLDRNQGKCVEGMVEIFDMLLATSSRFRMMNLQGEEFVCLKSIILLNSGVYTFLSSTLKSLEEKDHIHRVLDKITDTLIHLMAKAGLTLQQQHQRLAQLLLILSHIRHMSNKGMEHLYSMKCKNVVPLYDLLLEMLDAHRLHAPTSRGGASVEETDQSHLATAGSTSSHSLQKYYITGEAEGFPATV", "assay": "ER-α agonist activity", "format": "cell-based"}, "CLK-4": {"target": "CLK-4 (Homo sapiens, UniProt Q9HAZ1)", "sequence (Q9HAZ1 whole entry, species assumed)": "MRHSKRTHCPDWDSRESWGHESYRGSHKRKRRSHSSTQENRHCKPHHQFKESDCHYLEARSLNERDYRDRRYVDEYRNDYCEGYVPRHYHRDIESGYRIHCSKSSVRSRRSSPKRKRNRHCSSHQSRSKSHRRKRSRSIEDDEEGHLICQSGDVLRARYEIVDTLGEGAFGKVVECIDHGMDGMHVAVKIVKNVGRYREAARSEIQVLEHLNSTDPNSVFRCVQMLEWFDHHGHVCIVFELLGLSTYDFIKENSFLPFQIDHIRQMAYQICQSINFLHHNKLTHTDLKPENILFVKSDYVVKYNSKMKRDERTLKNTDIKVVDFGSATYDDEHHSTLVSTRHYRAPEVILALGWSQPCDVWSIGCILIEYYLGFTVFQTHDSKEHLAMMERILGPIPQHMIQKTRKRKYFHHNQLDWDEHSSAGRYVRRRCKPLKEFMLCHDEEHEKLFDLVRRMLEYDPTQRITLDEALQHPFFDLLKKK", "assay": "Affinity to CLK-4", "format": "binding", "conditions": "member of the family of CDC-2-like kinases"}, "[7]": {"system": "MDA-MB-231, AsPC-1, and A549", "assay": "Growth of several cancer cell lines incubated with Compound 205b", "format": "cell-based, human", "conditions": "range across MDA-MB-231, AsPC-1, and A549", "experimental": "as §2\n(§5) Compound 205b has been identified as a uniquely potent and selective agonist of ER-β, having an EC50=20 nM for ER-β and an EC50 over 3000 nM for ER-α."}, "[8]": {"system": "cancer cell lines (MDA-MB-231, AsPC-1, and A549)", "assay": "Cell cycle analysis and microscopic analysis of cancer cells treated with Compound 205b", "format": "cell-based, human", "conditions": "at 0.8-5 μM", "experimental": "as §5"}}, "note": "Values joined by “and” are separate entries in the source; they are usually repeats but may differ in a detail not shown here. Identical values can stand only once."}
{"compound": "COc1ccc2c(Br)cc3c(c2c1)CC[C@]1(C)C[C@@H](O)C[C@@H]31", "note": "[Compound 206a]", "values": [{"measurement": "GI50", "setting": "AsPC-1 [1]", "result": 20, "unit": "µM"}, {"measurement": "GI50", "setting": "MDA-MB-231 [2]", "result": 20, "unit": "µM"}]}
{"compound": "C[C@]12CCc3c(cc(C#Cc4ccccc4)c4ccc(O)cc34)[C@@H]1C[C@H](O)C2", "note": "[Compound 207c]", "values": [{"measurement": "GI50", "setting": "AsPC-1 [1]", "result": 15, "unit": "µM"}, {"measurement": "GI50", "setting": "MDA-MB-231 [2]", "result": 5, "unit": "µM"}]}
{"compound": "C[C@]12CCc3c(cc(C#Cc4ccccc4)c4ccc(O)cc34)[C@@H]1C[C@@H](O)C2", "note": "[Compound 205c]", "values": [{"measurement": "GI50", "setting": "AsPC-1 [1]", "result": 9, "unit": "µM"}, {"measurement": "GI50", "setting": "MDA-MB-231 [2]", "result": 8, "unit": "µM"}]}
{"compound": "C[C@]12CCc3c(cc(Br)c4ccc(O)cc34)[C@@H]1C[C@H](O)C2", "note": "[Compound 207a]", "values": [{"measurement": "GI50", "setting": "AsPC-1 [1]", "result": 30, "unit": "µM"}, {"measurement": "GI50", "setting": "MDA-MB-231 [2]", "result": 30, "unit": "µM"}]}
{"compound": "C[C@]12CCc3c(ccc4ccc(O)cc34)[C@@H]1C[C@H](O)C2", "note": "[Compound 207b]", "values": [{"measurement": "GI50", "setting": "AsPC-1 [1]", "result": 40, "unit": "µM"}, {"measurement": "GI50", "setting": "MDA-MB-231 [2]", "result": 20, "unit": "µM"}]}
{"compound": "COc1ccc2c(C#Cc3ccccc3)cc3c(c2c1)CC[C@]1(C)C[C@H](O)C[C@@H]31", "note": "[Compound 201c]", "values": [{"measurement": "GI50", "setting": "AsPC-1 [1]", "result": 30, "unit": "µM"}, {"measurement": "GI50", "setting": "MDA-MB-231 [2]", "result": 20, "unit": "µM"}]}
{"compound": "COc1ccc2ccc3c(c2c1)CC[C@]1(C)C[C@@H](O)C[C@@H]31", "note": "[Compound 206b]", "values": [{"measurement": "GI50", "setting": "AsPC-1 [1]", "result": 40, "unit": "µM"}, {"measurement": "GI50", "setting": "MDA-MB-231 [2]", "result": 30, "unit": "µM"}]}
{"compound": "COc1ccc2c(Br)cc3c(c2c1)CC[C@]1(C)C[C@H](O)C[C@@H]31", "note": "[Compound 201a]", "values": [{"measurement": "GI50", "setting": "AsPC-1 [1]", "result": 15, "unit": "µM"}, {"measurement": "GI50", "setting": "MDA-MB-231 [2]", "result": 15, "unit": "µM"}]}
{"compound": "COc1ccc2ccc3c(c2c1)CC[C@]1(C)C[C@H](O)C[C@@H]31", "note": "[Compound 201b]", "values": [{"measurement": "GI50", "setting": "AsPC-1 [1]", "result": 30, "unit": "µM"}, {"measurement": "GI50", "setting": "MDA-MB-231 [2]", "result": 25, "unit": "µM"}]}
{"compound": "C[C@]12CCc3c(cc(F)c4ccc(O)cc34)[C@@H]1C[C@@H](O)C2", "note": "[Compound 208b]", "values": [{"measurement": "GI50", "setting": "AsPC-1 [1]", "result": 8, "unit": "µM"}, {"measurement": "GI50", "setting": "MDA-MB-231 [2]", "result": 4, "unit": "µM"}]}
{"compound": "C[C@]12CCc3c(cc(Br)c4ccc(O)cc34)[C@@H]1C[C@@H](O)C2", "note": "[Compound 205a]", "values": [{"measurement": "GI50", "setting": "AsPC-1 [1]", "result": 10, "unit": "µM"}, {"measurement": "GI50", "setting": "MDA-MB-231 [2]", "result": 17, "unit": "µM"}]}
{"compound": "COc1ccc2c(F)cc3c(c2c1)CC[C@]1(C)C[C@H](O)C[C@@H]31", "note": "[Compound 208a]", "values": [{"measurement": "GI50", "setting": "AsPC-1 [1]", "result": 30, "unit": "µM"}, {"measurement": "GI50", "setting": "MDA-MB-231 [2]", "result": 25, "unit": "µM"}]}
{"compound": "COc1ccc2c(C#Cc3ccccc3)cc3c(c2c1)CC[C@]1(C)C[C@@H](O)C[C@@H]31", "note": "[Compound 206c]", "values": [{"measurement": "GI50", "setting": "AsPC-1 [1]", "result": 15, "unit": "µM"}, {"measurement": "GI50", "setting": "MDA-MB-231 [2]", "result": 15, "unit": "µM"}]}
{"compound": "COc1ccc2c(F)cc3c(c2c1)CC[C@]1(C)C[C@@H](O)C[C@@H]31", "note": "[Compound 208c]", "values": [{"measurement": "GI50", "setting": "AsPC-1 [1]", "result": 25, "unit": "µM"}, {"measurement": "GI50", "setting": "MDA-MB-231 [2]", "result": 5, "unit": "µM"}]}
{"compound": "C[C@@]12CC=C3C(=CC(=O)c4ccccc43)[C@H]1C[C@H](O)C2", "note": "[Compound 39]", "values": [{"measurement": "IC50", "setting": "[3]", "result": "1.2 µM to 4 µM and 0.32 µg/mL to 1.07 µg/mL"}, {"measurement": "GI50", "setting": "AsPC-1 [4]", "result": "~4", "unit": "µM"}, {"measurement": "GI50", "setting": "MDA-MB-231 [5]", "result": "0.32 µg/mL and 1.2 µM"}, {"measurement": "GI50", "setting": "[6]", "result": "~4", "unit": "µM"}]}
{"compound": "C[C@]12CCc3c(ccc4ccc(O)cc34)[C@@H]1C[C@@H](O)C2", "note": "[Compound 205b]", "values": [{"measurement": "GI50", "setting": "AsPC-1 [1]", "result": 2, "unit": "µM"}, {"measurement": "GI50", "setting": "MDA-MB-231 [2]", "result": 0.8, "unit": "µM"}, {"measurement": "EC50", "setting": "ER-β", "result": 0.02, "unit": "µM"}, {"measurement": "EC50", "setting": "ER-α", "result": "> 3", "unit": "µM"}, {"measurement": "Kd", "setting": "CLK-4", "result": "~0.35", "unit": "µM"}, {"measurement": "concentration at which growth was inhibited", "setting": "[7]", "result": "0.8 to 5", "unit": "µM"}, {"measurement": "mitotic arrest by microscopic analysis", "setting": "[8]", "result": "cells arrested in mitosis at prometaphase"}, {"measurement": "cell cycle arrest", "setting": "[8]; parallel experiments", "result": "arrested cells in G2/M phase of the cell cycle"}]}
